Experimental data reported in PubChem BioAssay (NCI).
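Dose response: 5 concentrations. Exposure: 48 h. Format: 96-well plates. Endpoint: linear interpolation; highest concentration if not reached. Definition used: TGI = concentration required for complete inhibition of growth.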

How the values were obtained:
Test in all cases: inhibition of tumour cell growth, NCI panel, 48 h
786-0 renal = system: 786-0 renal
A498 renal = system: A498 renal
A549 NSCLC = system: A549 NSCLC
ACHN renal = system: ACHN renal
CAKI-1 renal = system: CAKI-1 renal
CCRF-CEM leukemia = system: CCRF-CEM leukemia
DU-145 prostate = system: DU-145 prostate
EKVX NSCLC = system: EKVX NSCLC
HCC-2998 colon = system: HCC-2998 colon
HCT-116 colon = system: HCT-116 colon
HCT-15 colon = system: HCT-15 colon
HL-60(TB) leukemia = system: HL-60(TB) leukemia
HOP-62 NSCLC = system: HOP-62 NSCLC
HOP-92 NSCLC = system: HOP-92 NSCLC
HS 578T breast = system: HS 578T breast
HT29 colon = system: HT29 colon
IGROV1 ovarian = system: IGROV1 ovarian
K-562 leukemia = system: K-562 leukemia
KM12 colon = system: KM12 colon
LOX IMVI melanoma = system: LOX IMVI melanoma
M14 melanoma = system: M14 melanoma
MALME-3M melanoma = system: MALME-3M melanoma
MCF7 breast = system: MCF7 breast
MDA-MB-231 breast = system: MDA-MB-231 breast
MDA-MB-435 = system: MDA-MB-435
MDA-N = system: MDA-N
MOLT-4 leukemia = system: MOLT-4 leukemia
NCI-H226 lung = system: NCI-H226 lung
NCI-H23 lung = system: NCI-H23 lung
NCI-H460 lung = system: NCI-H460 lung
NCI-H522 lung = system: NCI-H522 lung
NCI/ADR-RES ovarian = system: NCI/ADR-RES ovarian
OVCAR-3 ovarian = system: OVCAR-3 ovarian
OVCAR-4 ovarian = system: OVCAR-4 ovarian
OVCAR-5 ovarian = system: OVCAR-5 ovarian
OVCAR-8 ovarian = system: OVCAR-8 ovarian
PC-3 prostate = system: PC-3 prostate
RPMI-8226 leukemia = system: RPMI-8226 leukemia
RXF 393 renal = system: RXF 393 renal
SF-268 CNS = system: SF-268 CNS
SF-295 CNS = system: SF-295 CNS
SF-539 CNS = system: SF-539 CNS
SK-MEL-2 melanoma = system: SK-MEL-2 melanoma
SK-MEL-28 melanoma = system: SK-MEL-28 melanoma
SK-MEL-5 melanoma = system: SK-MEL-5 melanoma
SK-OV-3 ovarian = system: SK-OV-3 ovarian
SN12C renal = system: SN12C renal
SNB-19 CNS = system: SNB-19 CNS
SNB-75 CNS = system: SNB-75 CNS
SR leukemia = system: SR leukemia
SW-620 colon = system: SW-620 colon
T-47D breast = system: T-47D breast
TK-10 renal = system: TK-10 renal
U251 CNS = system: U251 CNS
UACC-257 melanoma = system: UACC-257 melanoma
UACC-62 melanoma = system: UACC-62 melanoma
UO-31 renal = system: UO-31 renal

## Cc1ccc2c(=O)cc(-c3ccc(Cl)cc3)[nH]c2n1
786-0 renal
  TGI: > 100 µM
A498 renal
  TGI: > 100 µM
A549 NSCLC
  TGI: > 100 µM
ACHN renal
  TGI: > 100 µM
CAKI-1 renal
  TGI: > 65.9 µM
CCRF-CEM leukemia
  TGI: > 100 µM
DU-145 prostate
  TGI: > 55.4 µM
EKVX NSCLC
  TGI: > 100 µM
HCC-2998 colon
  TGI: > 63 µM
HCT-116 colon
  TGI: > 32.1 µM
HCT-15 colon
  TGI: > 41.3 µM
HL-60(TB) leukemia
  TGI: 8.8 µM
HOP-62 NSCLC
  TGI: > 100 µM
HOP-92 NSCLC
  TGI: > 100 µM
HS 578T breast
  TGI: > 100 µM
HT29 colon
  TGI: > 29.4 µM
IGROV1 ovarian
  TGI: > 100 µM
K-562 leukemia
  TGI: 29.1 µM
KM12 colon
  TGI: > 100 µM
LOX IMVI melanoma
  TGI: > 100 µM
M14 melanoma
  TGI: > 100 µM
MALME-3M melanoma
  TGI: > 31.3 µM
MCF7 breast
  TGI: > 100 µM
MDA-MB-231 breast
  TGI: 19.7 µM
MDA-MB-435
  TGI: 5.5 µM
MDA-N
  TGI: 5.56 µM
MOLT-4 leukemia
  TGI: > 43.3 µM
NCI-H226 lung
  TGI: 82 µM
NCI-H23 lung
  TGI: > 100 µM
NCI-H460 lung
  TGI: > 100 µM
NCI-H522 lung
  TGI: > 100 µM
NCI/ADR-RES ovarian
  TGI: > 28.3 µM
OVCAR-3 ovarian
  TGI: > 30.2 µM
OVCAR-4 ovarian
  TGI: > 100 µM
OVCAR-5 ovarian
  TGI: > 100 µM
OVCAR-8 ovarian
  TGI: > 100 µM
PC-3 prostate
  TGI: > 20.8 µM
RPMI-8226 leukemia
  TGI: > 49.1 µM
RXF 393 renal
  TGI: > 100 µM
SF-268 CNS
  TGI: > 100 µM
SF-295 CNS
  TGI: 53.8 µM
SF-539 CNS
  TGI: 36.8 µM
SK-MEL-2 melanoma
  TGI: > 100 µM
SK-MEL-28 melanoma
  TGI: > 100 µM
SK-MEL-5 melanoma
  TGI: 14.6 µM
SK-OV-3 ovarian
  TGI: > 100 µM
SN12C renal
  TGI: > 94.8 µM
SNB-19 CNS
  TGI: > 100 µM
SNB-75 CNS
  TGI: > 27.9 µM
SR leukemia
  TGI: > 100 µM
SW-620 colon
  TGI: > 100 µM
T-47D breast
  TGI: 26.3 µM
TK-10 renal
  TGI: > 100 µM
U251 CNS
  TGI: > 59.9 µM
UACC-257 melanoma
  TGI: > 67.7 µM
UACC-62 melanoma
  TGI: > 100 µM
UO-31 renal
  TGI: > 66.8 µM
